“Also recorded” adds a separate entry of the source.
Tests used:
[1] = test system: mice with oxygen-induced retinopathy; experiment: Oxygen-induced retinopathy model: vaso-obliteration and retinal neovascularization at P17; format: in vivo, mouse; details: for decrease in vessel loss (VO) compared to vehicle control / decrease in neovascularization (Tufts) compared to vehicle-treated mice: 10 ng i.p. daily P6-P17, read at P17; for decrease in vessel loss (VO) compared to vehicle control / protection from vaso-obliteration compared to saline-injected controls: FIG. 7a; for decrease in neovascularization (Tufts) compared to vehicle-treated mice / neovascularization at P17 compared to saline controls: FIG. 7b; for neovascularization at P17 compared to saline controls / protection from vaso-obliteration compared to saline-injected controls: 10 ng/day i.p. P6-P17
Description: Retinopathy is modeled in the mouse eye with oxygen-induced vessel loss which precipitates hypoxia-induced retinopathy^1. One-week-old C57BL/6J mice are exposed to 75% oxygen for 5 days and then to room air. A fluorescein-dextran perfusion method is used to assess the vascular pattern. The proliferative neovascular response is quantified by counting the nuclei of new vessels extending from the retina into the vitreous in 6 microns sagittal cross-sections. Cross-sections are also stained for glial fibrillary acidic protein (GFAP). Fluorescein-dextran angiography delineates the entire vascular pattern, including neovascular tufts in flat-mounted retinas. Hyperoxia-induced neovascularization occurs at the junction between the vascularized and avascular retina in the mid-periphery. Retinal neovascularization occurs in all the pups between postnatal day 17 and postnatal day 21. This serves as a reproducible and quantifiable mouse model of oxygen-induced retinal neovascularization for the study of pathogenesis of retinal neovascularization as well as for the study of medical intervention for ROP and other retinal angiopathies in humans. This model allows assessment of retinal vessel loss, vessel re-growth after injury and pathological angiogenesis^1.
Litters of mice were subjected to the oxygen induced retinopathy model. Briefly, mice (pups with mothers) on normal chow were placed in 75% oxygen at postnatal day 7, and kept at 75% oxygen for five days. Mice were then returned to room air. During this room air phase (P12-P17) the retina becomes hypoxic due to the vessel regression that occurred while mice were in hyperoxia. Here mice were given either an omega-3 or omega-6 LCPUFA diet. At p12 (once out of oxygen, after vessel loss) or at P15 (a few days later as retinopathy was setting in).
Animals. These studies adhered to the ARVO Statement for the Use of Animals in Ophthalmic and Vision Research. Fat-1 transgenic mice contain a humanized fat-1 cDNA driven by the cytomegalovirus enhancer and a chicken β-actin promoter^9. Fat-1 and control dams were fed a defined diet with elevated omega-6 polyunsaturated fatty acids. For diet studies C57Bl/6 mothers at delivery (unless otherwise indicated for FIG. 12) were fed a defined rodent diet with 10% (w/w) safflower oil containing 2% omega-6 polyunsaturated fatty acids (AA) and no omega-3 polyunsaturated fatty acids or the same defined diet except for 2% omega-3 polyunsaturated fatty acids (DHA and EPA) and no omega-6 polyunsaturated fatty acids (AA). (Table 1) Diets were stable over time and with oxygen exposure (Table 2), unless otherwise indicated.
(§1) O2-induced retinopathy (vessel degeneration, re-growth and pathological neovascularization). To induce vessel loss, postnatal day 7 (P7) mice with their nursing mother were exposed to 75% oxygen for times ranging from 24 hours to 5 days^1. To evaluate vaso-obliteration following 24 hours of oxygen exposure, P8 mice were anesthetized at with Avertin (Sigma) and perfused with 50 μl of 120 mg/ml FITC-dextran (2×10^6 molecular weight, FD2000S-5G, Sigma) in saline through the left ventricle^21. Eyes were enucleated and fixed in 4% paraformaldehyde for 2 h at 4° C. Retinas were isolated and whole-mounted with SlowFade Antifade reagent (S2828, Molecular Probes) onto polylysin-coated slides with the photoreceptor side up. Retinas were examined with a fluorescence microscope (Olympus, Tokyo), digitized images using a three-charge-coupled device color video camera (DX-950P, Sony), and processed with NORTHERN ECLIPSE software (Empix Imaging, Toronto). Retinal neovascularization was evaluated 5 days after oxygen exposure (P7-P12) at P17 when the neovascular response is greatest. P17 mice were given a lethal dose of Avertin (Sigma) and their eyes were enucleated and fixed in 4% paraformaldehyde for 2 h at 4° C. […]

TNF-α = details: literature refs 14, 15, 16; cited from earlier work
[2] = test system: mice exposed to 75% oxygen; experiment: Oxygen-induced vessel loss (vaso-obliteration) at P8 after 24 hours of 75% oxygen; format: in vivo, mouse; details: 10 ng i.p. P5-P8; FIG. 7c
Experimental: as §1, with “greatest.” for “greatest. P17 mice were given a lethal dose of Avertin (Sigma) and their eyes were enucleated and fixed in 4% paraformaldehyde for 2 h at 4° C.”
Quantification of vaso-obliteration and retinal neovascularization. […] Vaso-obliteration and neovascular tuft formation were quantified by comparing the number of pixels in the affected areas with the total number of pixels in the retina. […]
Resolvins and Neurorotectins. […] Retinas collected at P17 from omega-6 or omega-3 polyunsaturated fatty acid fed dams and exposed to high oxygen or room air conditions were analyzed to determine lipid mediator profiles. Polyunsaturated fatty acid derived products were extracted, identified, and quantified using a deuterium-labelled internal standard and MS-MS based mediator informatics^23. […] Following retinal staining and whole-mounting, neovascularization and vaso-obliteration were quantified at P17. Vaso-obliteration was also assessed at P8 (after 24 hours of 75% oxygen exposure) in pups given 10 ng of RvD1 (n=7), RvE1 (n=9), NPD1 (n=7), or saline/EtOH vehicle injections (n=6) i.p. from P5-P8. […]

| Compound | vaso-obliteration versus fellow saline-injected eye ([1]; intraocular (intravitreous) 12.5 μg at P12, omega-6 fed mice, P17, FIG. 11a) | retinal neovascularization versus fellow saline-injected eye ([1]; intraocular (intravitreous) 12.5 μg at P12, omega-6 fed mice, P17, FIG. 11b) | vaso-obliteration (vessel loss) versus saline injected controls ([1]; intraperitoneal, 500 μg/mouse at P7, P12, P14, P16, omega-6 fed mice, P17, FIG. 10a) | pathologic neovascularization versus saline injected controls ([1]; intraperitoneal, 500 μg/mouse at P7, P12, P14, P16, omega-6 fed mice, P17, FIG. 10b) | TNF-α mRNA expression levels in inflammatory models (TNF-α) | decrease in vessel loss (VO) compared to vehicle control [1] | decrease in neovascularization (Tufts) compared to vehicle-treated mice [1] | neovascularization at P17 compared to saline controls [1] | protection from vaso-obliteration compared to saline-injected controls ([1]; P17) | oxygen-induced vessel loss at P8 versus saline-injected control [2] |
| --- | --- | --- | --- | --- | --- | --- | --- | --- | --- | --- |
| etanercept [reference compound] | significantly reduce | suppressed; also recorded: significantly improved | significantly protected; also recorded: significant reduction | significantly protected; also recorded: significant reduction |  |  |  |  |  |  |
| CC[C@@H](O)/C=C/C=C\C[C@@H](O)/C=C/C=C/C=C\[C@@H](O)CCCC(=O)O [RvE1, 5S,12R,18R-trihydroxy-6Z,8E,10E,14Z,16E-eicosapentaenoic acid] |  |  |  |  | significantly reduce | 40% | 30% | less neovascularization | significant protection | No apparent differences; also recorded: no protective action |
| CC/C=C\C[C@H](O)/C=C/C=C\C=C\C=C\[C@@H](O)[C@@H](O)C/C=C\CCC(=O)O [RvD1, 7S,8R,17S-trihydroxy-docosa-4Z,9E,11E,13Z,15E,19Z-hexaenoic acid] |  |  |  |  | significantly reduce | 40% | 30% | less neovascularization | significant protection | No apparent differences |
| CC/C=C\C[C@H](O)\C=C/C=C/C=C/[C@H](O)C/C=C\C/C=C\CCC(=O)O [NPD1, 10R,17S dihydroxy-docosa-4Z,7Z,11E,13E,15Z,19z-hexaneoic acid] |  |  |  |  | significantly reduce | 40% | 30% | less neovascularization | significant protection | No apparent differences; also recorded: no protective action |

From patent publication US20100048705A1, “METHODS OF TREATING AND PREVENTING NEOVASCULARIZATION WITH OMEGA-3 POLYUNSATURATED FATTY ACIDS” (CHILDREN'S MEDICAL CENTER CORPORATION, priority 2006, published 2010)
